Experimental findings from patent US20220071210A1, “FUNGICIDAL MIXTURE” (Adama Makhteshim Ltd., priority 2018, published 2022) are described below.

This experiment has as its system Ramularia collo-cygni. The experiment in a line: Fungicidal control of Ramularia collo-cygni on winter barley (spray treatments, alone and tank mix). Particulars: sprayed twice 14 days apart, rate (gr A.I./ha) as in table; for % control observed, 38 Days after 2nd application: untreated severity 85.6%; for % control observed, 44 Days after 2nd application: untreated severity 100%. It is filed as in vivo. Here is the method: An experiment was conducted to evaluate the fungicidal control of Ramularia collo-cygni on winter barley with a dehydrogenase inhibitor fungicide (fluxapyroxad), and folpet, alone, and in binary mixtures.
The experiments were conducted by applying a commercially available composition of fluxapyroxad (Imtrex®) and folpet (MCW-296 SC) alone or together. The compositions were diluted with water to the stated concentration of the active compound.
The following active ingredients and their mixtures were evaluated: • Fluxapyroxad 90 gr (A.I.)/ha • Folpet 750 gr (A.I.)/ha • Fluxapyroxad+Folpet 90 gr (A.I.)/ha+750 gr (A.I.)/ha
To test for fungicidal control of Ramularia collo-cygni, the winter barley was sprayed with each of the above treatments. Each of the above treatments were applied twice, the 2nd treatment occurring 14 days after the first treatment. The treatments were composed of 4 replicates.
Evaluations were performed at 38 days and 44 days after the second treatment. At these times the severity of the Ramularia collo-cygni was determined. At the time of the 1st evaluation (38 days after the second treatment) the severity of the infection of Ramularia collo-cygni on the winter barley was 85.6%. At the time of the 2nd evaluation (44 days after the second treatment) the severity was 100%.
The visually determined percentages of infected leaf areas may be converted into efficacies in % of the untreated control:
The efficacy (E) is calculated as follows using Abbott's formula: […]
A corresponds to the fungicidal infection of the treated plants in % and B corresponds to the fungicidal infection of the untreated (control) plants in %.
An efficacy of 0 means that the infection level of the treated plants corresponds to that of the untreated control plants; an efficacy of 100 means that the treated plants are not infected.
In the field of agriculture, it is often understood that the term “synergy” is as defined by Colby S. R. in an article entitled “Calculation of the synergistic and antagonistic responses of herbicide combinations” published in the journal Weeds, 1967, 15, p. 20-22. The action expected for a given combination of two active components can be calculated as follows: […]
in which E represents the expected percentage of fungicidal control for the combination of the two fungicides at defined doses (for example equal to x and y respectively), X is the percentage of fungicidal control observed by the compound (I) at a defined dose (equal to x), Y is the percentage of fungicidal control observed by the compound (II) at a defined dose (equal to y). When the percentage of fungicidal control observed for the combination is greater than the expected percentage, there is a synergistic effect.

Regarding `Cn1cc(C(=O)Nc2ccccc2-c2cc(F)c(F)c(F)c2)c(C(F)F)n1` [Fluxapyroxad, fluxapyroxad], the “% control observed, 38 Days after 2nd application” value was 47.1% and the “% control observed, 44 Days after 2nd application” value was found to be 12.2%.

As for `O=C1c2ccccc2C(=O)N1SC(Cl)(Cl)Cl` [Folpet, folpet], the “% control observed, 38 Days after 2nd application” value is recorded as 30.3% and the “% control observed, 44 Days after 2nd application” value was found to be 9.7%.
